# Assay results as given in patent US5668141A, “Trans-2,6-,3,6-and 4,6-diaza-5,6,6a,7,8,12b-hexahydrobenzo[c]phenanthrene compounds as dopamine agonists” (Abbott Laboratories, priority 1996, dated 1997).
# Counter-ions that a name gives are not always drawn.
# Assays:
# human D1 receptor = target: T1, human D1 receptor (Homo sapiens, UniProt P21728); assay: Adenylate cyclase activity (cAMP stimulation in HEK-D1 cells); format: cell-based; settings: read-out: IA (relative intrinsic activity to dopamine)
# T1 construct: expressed in transfected cells; host or cells: HEK-D1 cells (HEK cells expressing the human D1 clone)
# Protocol: Adenylate cyclase activity: Human D1 receptor.
# The interaction of dopamine or a dopamine D-1 receptor agonist with the D-1 receptor causes a dose-dependent increase in the adenylate cyclase-catalyzed conversion of adenosine triphosphate (ATP) to cyclic adenosine monophosphate (cAMP). The functional activity of the compounds of the invention was determined by assaying their ability to either stimulate the enzyme adenylate cyclase to produce cAMP (agonist activity). Assays were conducted in 24-well or 48-well tissue culture plates. The assay buffer consisted of DPBS containing CaCl2 and MgCl2, 0.1% glucose, 0.5 mM IBMX, 0.004% ascorbic acid and 10 μM propranolol to inhibit potential cross activation of the endogenous β-receptor. Culture medium was removed, and HEK-D1 cell was washed once with assay buffer, and 400 μl fresh assay buffer was added for 10 min. Next, 100 μl of dopamine or dopamine agonist, dissolved in assay buffer, was added to the cell for an additional 15 min, and incubations were terminated with 500 μL 0.2N HCl. cAMP contents were determined by RIA using the automated Attoflo™ system (Rockville, Md.).
# The hD1c ED50 level is a measure of the potency, showing the concentration (nM) at which a 50% response is obtained; a lower number indicates a higher potency. High intrinsic activity (IA) indicates the activity of the compound as a dopamine agonist.
# schizophrenia = settings: cited from earlier work; for antipsychotic effect: low doses
# [1] = test system: striatal dopamine receptors; assay: Rotation behavior, rat rotational model (6-hydroxydopamine unilateral lesion); format: in vivo; settings: sc, 6-hydroxydopamine-lesioned rats
# Protocol: The behavioral assay used was based on the rat rotational model. Striatal dopamine was depleted by the intracranial injection of 6-hydroxydopamine, a neurotoxin which specifically destroys catecholaminergic neurons. […] This unilateral lesioning of dopamine-containing neurons causes the post-synaptic dopamine receptors to become supersensitive to dopaminergic stimulation in behavioral assays. […] Agonist activity was measured by the ability of the test compound to induce rotation.
# A lower number indicates a higher potency.
# dopamine receptor = settings: cited from earlier work
# [2] = test system: neural feeding mechanisms; settings: rats; cited from earlier work
# acute renal failure = settings: in combination with diuretics, patients; cited from earlier work
# Parkinson's disease = settings: alone, some early Parkinson's disease patients; cited from earlier work
# T1 sequence (P21728 whole entry): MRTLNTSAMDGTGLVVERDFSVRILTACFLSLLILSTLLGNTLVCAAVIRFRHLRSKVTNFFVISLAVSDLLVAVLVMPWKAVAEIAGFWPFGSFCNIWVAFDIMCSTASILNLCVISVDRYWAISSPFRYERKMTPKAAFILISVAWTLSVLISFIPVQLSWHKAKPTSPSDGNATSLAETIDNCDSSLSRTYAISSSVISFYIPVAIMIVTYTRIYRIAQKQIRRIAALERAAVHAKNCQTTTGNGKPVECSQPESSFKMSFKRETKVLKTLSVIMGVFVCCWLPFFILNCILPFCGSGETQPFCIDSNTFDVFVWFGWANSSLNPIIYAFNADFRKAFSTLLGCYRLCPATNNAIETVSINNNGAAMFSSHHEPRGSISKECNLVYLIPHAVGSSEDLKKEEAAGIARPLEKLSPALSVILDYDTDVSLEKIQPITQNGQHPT
smiles,measurement,setting,value
"Cc1cncc2c1CN[C@H]1CCc3cc(O)c(O)cc3[C@H]21 (relative stereo) [Example 14, trans-2,6-diaza-4-methyl-5,6,6a,7,8,12b-hexahydrobenzo[c]phenanthrene 10,11-diol dihydrobromide]",Emax,human D1 receptor,75%
"CCCCc1cnc2c(c1)[C@H]1c3cc(O)c(O)cc3CC[C@@H]1NC2 (relative stereo) [Example 8, trans-4,6-diaza-5,6,6a,7,8,12b-hexahydro-2-butylbenzo[c]phenanthrene 10,11-diol dihydrobromide]",Emax,human D1 receptor,118%
CN1CCc2cccc3c2[C@H]1Cc1ccc(O)c(O)c1-3 [apomorphine],antipsychotic effect,schizophrenia,produce antipsychotic effects
"CCCc1ccc2c(n1)CN[C@H]1CCc3cc(O)c(O)cc3[C@H]21 (relative stereo) [Example 3, trans-4,6-diaza-5,6,6a,7,8,12b-hexahydro-3-propylbenzo[c]phenanthrene 10,11-diol dihydrobromide]",Rotation behavior EC50,[1],0.14 µmol/kg
same,Emax,human D1 receptor,116%
"Oc1cc2c(cc1O)[C@@H]1c3cc4c(nc3CN[C@H]1CC2)CCCC4 (relative stereo) [Example 10, trans-4,6-diaza-5,6,6a,7,8,12b-hexahydro-2,3-cyclohexenobenzo[c]phenanthrene 10,11-diol dihydrobromide]",Emax,human D1 receptor,136%
"Oc1cc2c(cc1O)[C@@H]1c3cnccc3CN[C@H]1CC2 (relative stereo) [Example 11, trans-2,6-diaza-5,6,6a,7,8,12b-hexahydrobenzo[c]phenanthrene 10,11-diol dihydrobromide]",Emax,human D1 receptor,81%
Oc1cc2c(cc1O)[C@H]1c3ccccc3CN[C@@H]1CC2 (racemic) [dihydrexidine],dopamine agonist activity,dopamine receptor,active as a dopamine agonist
"Oc1cc2c(cc1O)[C@@H]1c3cncc(F)c3CN[C@H]1CC2 (relative stereo) [Example 12, trans-2,6-diaza-4-fluoro-5,6,6a,7,8,12b-hexahydrobenzo[c]phenanthrene 10,11-diol dihydrobromide]",Emax,human D1 receptor,126%
"Cc1cc2c(nc1C)CN[C@H]1CCc3cc(O)c(O)cc3[C@H]21 (relative stereo) [Example 9, trans-4,6 diaza-5,6,6a,7,8,12b-hexahdro-2,3-dimethylbenzo[c]phenanthrene 10,11-diol dihydrobromide]",Emax,human D1 receptor,134%
Oc1cc2c(cc1O)C(c1ccccc1)CNCC2 (stereo not shown) [SKF 38393],effect on side-effects of haloperidol,schizophrenia; in conjunction with haloperidol,ameliorate the undesired side-effects of the haloperidol
same,effect on food intake,[2],decrease food intake by rats
"Oc1cc2c(cc1O)[C@@H]1c3cccnc3CN[C@H]1CC2 (relative stereo) [Example 1, trans-4,6-diaza-5,6,6a,7,8,12b-hexahydrobenzo[c]phenanthrene 10,11-diol dihydrobromide]",Emax,human D1 receptor,125%
"Cc1cnc2c(c1)[C@H]1c3cc(O)c(O)cc3CC[C@@H]1NC2 (relative stereo) [Example 7, trans-4,6-diaza-5,6,6a,7,8,12b-hexahydro-2-methylbenzo[c]phenanthrene 10,11-diol dihydrobromide]",Emax,human D1 receptor,156%
"COc1ccc2c(n1)CN[C@H]1CCc3cc(O)c(O)cc3[C@H]21 (relative stereo) [Example 4, trans-4,6-diaza-5,6,6a,7,8,12b-hexahydro-3-methoxybenzo[c]phenanthrene 10,11-diol dihydrobromide]",Emax,human D1 receptor,114%
"Oc1cc2c(cc1O)[C@@H]1c3ccc(F)nc3CN[C@H]1CC2 (relative stereo) [Example 5, trans-4,6-diaza-3-fluoro-5,6,6a,7,8,12 b-hexahydrobenzo[c]phenanthrene 10,11-diol dihydrobromide]",Rotation behavior EC50,[1],0.82 µmol/kg
same,Emax,human D1 receptor,141%
NCCc1ccc(O)c(O)c1 [dopamine],effect on acute renal failure,acute renal failure,reverse radio-contrast media-induced acute renal failure
"Cc1ccc2c(n1)CN[C@H]1CCc3cc(O)c(O)cc3[C@H]21 (relative stereo) [Example 2, trans-4,6-diaza-5,6,6a,7,8,12b-hexahydro-3-methylbenzo[c]phenanthrene 10,11-diol dihydrobromide]",Emax,human D1 receptor,121%
CC(C)C[C@H]1C(=O)N2CCC[C@H]2[C@]2(O)O[C@](NC(=O)[C@@H]3C=C4c5cccc6[nH]c(Br)c(c56)C[C@H]4N(C)C3)(C(C)C)C(=O)N12 [Bromocriptine],antipsychotic effect,schizophrenia,produce antipsychotic effects
same,effect on Parkinson's disease symptoms,Parkinson's disease,relieve Parkinson's disease symptoms in some early Parkinson's disease patients
"Oc1cc2c(cc1O)[C@@H]1c3ccncc3CN[C@H]1CC2 (relative stereo) [Example 13, trans-3,6-diaza-5,6,6a,7,8,12b-hexahydrobenzo[c]phenanthrene 10,11-diol dihydrobromide]",Emax,human D1 receptor,131%
